Assay results: ChEMBL document CHEMBL3259531, “Discovery of novel type II c-Met inhibitors based on BMS-777607” (Eur J Med Chem, 2014)
Each block holds one compound with its values, some of them ahead of it. Calls of active or inactive are those of the source. The rule behind the calls is not given here.

Experiments:
BaF3 [1] = assay: Cytotoxicity against mouse BAF3 cells expressing TPR-Met assessed as growth inhibition after 72 hrs; details: BaF3, 72 h
[2] = Cytotoxicity against human MKN45 cells assessed as growth inhibition after 72 hrs; details: MKN-45, 72 h
BaF3 [3] = assay: Cytotoxicity against mouse BAF3 cells expressing TPR-Met assessed as growth inhibition at 10 uM after 72 hrs relative to control; assay type: functional; details: BaF3, 72 h, read-out: GI
[4] = molecular target: T1, Hepatocyte growth factor receptor (Homo sapiens, UniProt P08581); assay: Inhibition of c-Met (unknown origin) using poly Glu:Tyr (4:1) as substrate after 60 mins by ELISA
[5] = molecular target: T1, Hepatocyte growth factor receptor
[6] = molecular target: T1, Hepatocyte growth factor receptor; assay: Inhibition of c-Met (unknown origin) using poly Glu:Tyr (4:1) as substrate at 10 uM after 60 mins by ELISA relative to control
[7] = molecular target: T1, Hepatocyte growth factor receptor; remark: listed apart in the source
BaF3 [8] = assay: Cytotoxicity against mouse BAF3 cells expressing TPR-Met assessed as growth inhibition at 1 uM after 72 hrs; assay type: functional, cell-based
[9] = molecular target: T1, Hepatocyte growth factor receptor; assay: Inhibition of c-Met (unknown origin)

Compound: CCOc1ccn(-c2ccc(F)cc2)c(=O)c1C(=O)Nc1ccc(Oc2ccnc(N)c2Cl)c(F)c1 [BMS-777607]
IC50 (BaF3 [1]): 188 nM
IC50 [2]: 286 nM

Compound: COc1cc2nccc(Oc3ccc(NC(=O)c4c(OC)ccn(-c5ccc(F)cc5)c4=O)cc3F)c2cc1OC
IC50 (BaF3 [1]): 36.3 nM
inhibition of growth at 10 µM (BaF3 [3]): > 80%
IC50 [2]: 57.7 nM

inhibition [4]: inactive
Compound: Nc1nccc(Oc2ccc(N3CCCC(C(=O)Nc4ccccc4)S3(=O)=O)cc2F)c1Cl (stereo not drawn)

IC50 [5]: 39 nM
Compound: Nc1nccc(Oc2ccc(NC(=O)c3cccn(-c4ccc(F)cc4)c3=O)cc2F)n1

inhibition [4]: inactive
Compound: Nc1nccc(Oc2ccc(N3CCCC(C(=O)Nc4ccc(F)cc4)S3(=O)=O)cc2F)c1Cl (stereo not drawn)

Compound: O=C(Nc1ccc(Oc2ncnc3[nH]ccc23)c(F)c1)c1cccn(-c2ccc(F)cc2)c1=O
inhibition of growth at 10 µM (BaF3 [3]): > 80%

inhibition [6]: 29.7%
Compound: COc1cc2nccc(Oc3ccc(NC(=O)c4cccn(-c5ccc(F)cc5)c4=O)cc3F)c2cc1OC

IC50 [7]: Not Active
Compound: Cc1ccc(NC(=O)C2CCCN(c3ccc(Oc4ccnc(N)c4Cl)c(F)c3)S2(=O)=O)cc1 (stereo not drawn)

Compound: CCOc1ccn(-c2ccc(F)cc2)c(=O)c1C(=O)Nc1ccc(Oc2ncnc3[nH]ccc23)c(F)c1
inhibition of growth at 10 µM (BaF3 [3]): > 80%

Compound: COc1cc2nccc(Oc3ccc(NC(=O)c4c(I)ccn(-c5ccc(F)cc5)c4=O)cc3F)c2cc1OC
growth inhibition (GI) (BaF3 [8]): Active
inhibition of growth at 10 µM (BaF3 [3]): > 80%

Compound: CCOc1ccn(-c2ccc(F)cc2)c(=O)c1C(=O)Nc1ccc(Oc2ccnc3cc(OC)c(OC)cc23)c(F)c1
IC50 (BaF3 [1]): 19.5 nM
inhibition of growth at 10 µM (BaF3 [3]): > 80%
IC50 [2]: 39.7 nM

IC50 [9]: 27 nM
Compound: CCn1cnc(-c2cc3nccc(Oc4ccc(NC(=S)N5CCN(c6ccc(F)cc6)C5=O)cc4F)c3s2)c1
